Source: US9789102B2, “H3 receptor antagonist for use in the treatment of alzheimer's disease” (SANOFI, priority 2012, dated 2017)

Experiments:
[1] = system: protein tau phosphorylation at AD-2 epitope; assay: Western blot of tau phosphorylation at AD-2 epitope after two-week administration (Example 2); assay type: in vivo; conditions: THY-Tau22 mice
Experimental: (§1) For immunoblot analysis, frozen mouse tissues (either hippocampus or cortex) were homogenized using a Precellys 24 tissue homogenizer in 350 μl RIPA buffer from Cell Signaling (20 mM Tris-HCl (pH 7.5), 150 mM NaCl, 1 mM Na2 EDTA, 1 mM EGTA, 1% NP-40, 1% sodium deoxycholate, 2.5 mM sodium pyrophosphate, 1 mM beta-glycerophosphate, 1 mM Na3VO4, 1 μg/ml leupeptin) to which proteases inhibitors (Sigma cocktail 1% v/v) and phosphatases inhibitors (okadaic acid 1 μM, sodium fluoride 100 mM) were added. After centrifugation, 16000×g 4° C. for 10 minutes, protein content in supernatants was determined with BioRad DC Protein Assay kit, using BSA as a standard. […] Tau protein was detected using the following mouse antibody: AD-2 1/20.000^e (Biorad, 56484) which recognizes tau protein phosphorylated on Ser396 and Ser404. […]
(§2) Following incubation with primary antibodies, blots were rinsed in TBS Tween 0.1% and incubated for 1 hour at room temperature in an anti-mouse IgG horseradish peroxidase (HRP)-linked secondary antibody 1/10,000^e (GE healthcare, NA9310) diluted in 5% non-fat dry milk in TBS Tween 0.1%. […] Quantification of immunoreactive signal was performed using Multigauge V3.0 software (FUJIFILM). […]

[2] = system: THY-Tau22 transgenic mice; assay: Cognitive deficits after 6 months of treatment; assay type: in vivo; conditions: clinically relevant doses
[3] = system: tau phosphorylation at the AT-8 epitope; assay: Western blot analysis of tau phosphorylation at AT-8 epitope after six months in food; assay type: in vivo, THY-Tau22 mice; conditions: 0.0034% in food, trend only, ns
[4] = system: tau phosphorylation on AD2 epitope (pSer396-pSer404); assay: Western blot of tau phosphorylation on AD-2 epitope after six months in food (Example 3); assay type: in vivo, THY-Tau22 mice; conditions: 0.0034% in food
Source text: 2-(Cyclohexylmethyl)-N-{2-[(2S)-1-methylpyrrolidin-2-yl]ethyl}-1,2,3,4-tetrahydroisoquinoline-7-sulfonamide difumarate monohydrate was administrated as a supplement in food at doses of 0.00034%, 0.0034% and 0.034% for six months in THY-Tau22 and wild type mice as follows: • Tg Veh (n=17) • Tg Active Ingredient—0.034% (n=17) • Tg Active Ingredient—0.0034% (n=17) • Tg Active Ingredient—0.00034% (n=17) • WT Veh (n=17) • WT Active Ingredient—0.034% (n=17) • WT Active Ingredient—0.0034% (n=17) • WT Active Ingredient—0.00034% (n=17) • WT groups treated with Active Ingredient are not used in the biochemical and histological studies.
as §1, with “standard. Equal amounts of protein (5 μg) were loaded on 15-well 4-12% Bis-Tris gels (NuPAGE, Invitrogen) and electrophoresis was performed at 200V for 50 minutes in MOPS buffer according to the manufacturer's instructions.” for “standard.”
as §2

CN1CCC[C@H]1CCNS(=O)(=O)c1ccc2c(c1)CN(CC1CCCCC1)CC2 [2-(cyclohexylmethyl)-N-{2-[(2S)-1-methylpyrrolidin-2-yl]ethyl}-1,2,3,4-tetrahydroisoquinoline-7-sulfonamide difumarate monohydrate]
effect on protein tau phosphorylation at AD-2 epitope in the hippocampus ([1]; 0.002% in drinking water): did not elicit any effect
effect on protein tau phosphorylation at AD-2 epitope in the hippocampus ([1]; 0.02% in drinking water): did not elicit any effect
cognitive deficits [2]: decreases cognitive deficits
inhibition of tau phosphorylation at the AT-8 epitope, hippocampus [3]: −22%
protein tau phosphorylation on AD-2 epitope in hippocampus, vs vehicle ([4]; THY-Tau22 mice): statistical significant decrease
inhibition of tau phosphorylation at the AD-2 epitope, cortex ([4]; Western blot, non-significant, p=0.1807): −57%
inhibition of tau phosphorylation at the AD-2 epitope, hippocampus ([4]; Western blot, p=0.0229 vs vehicle): −37%
